Laboratory results from US9149539B1, “Crystalline naloxol-PEG conjugate” (priority 2010, dated 2015).

Assay: Moisture uptake by dynamic vapor sorption (DVS)
Assay type: physicochemical

mPEG7-O-naloxol phosphate salt
Hysteresis between adsorption and desorption (DVS) (desorption): no hysteresis
Moisture uptake, DVS isotherm curve (whole isotherm): continuous (exponential) moisture uptake from the start
